From patent publication US10383831B2, “2,4,6-trialkoxystryl aryl sulfones, sulfonamides and carboxamides, and methods of preparation and use” (Temple University—Of The Commonwealth System Of Higher …, priority 2015, dated 2019)

Assays:
Assay type in all cases: cell-based
DU145 = experiment: Cytotoxicity assay (viable cell count, trypan blue), DU145; conditions: Homo sapiens, DU-145; DU145, Prostate; 96 hours continuous treatment
Experimental: (§1) Cells of the cell lines listed in Table 18 (1×10^5) were plated into 6-well dishes. Twenty-four hours later, the compound of Example 1, i.e., (Z)-ethyl 3-((2-methoxy-5-(((E)-2,4,6-trimethoxystyrylsulfonyl)methyl) phenyl)amino)acrylate, or the compound of Comparative Example 1, i.e., sodium (E)-2-(5-((2,4,6-trimethoxystyrylsulfonyl)methyl)-2-methoxyphenylamino) acetate (rigosertib) was added at different concentrations over a 4 log dilution (0.001 to 10 μM). The total number of viable cells was determined after 96 hours of continuous treatment by staining with trypan blue and counting the number of non-staining cells (viable) remaining in each well using a hemacytometer. The percentage of viable cells remaining was calculated as follows: # viable cells (compound treated)/# viable cells (DMSO treated)*100. The GI50 (the concentration of drug resulting in 50% net loss of growth inhibition) was determined.

PC-3 = experiment: Cytotoxicity assay (viable cell count, trypan blue), PC-3; conditions: Homo sapiens; PC-3, Prostate; 96 hours continuous treatment
Experimental: as §1

UM-UC-3 = experiment: Cytotoxicity assay (viable cell count, trypan blue), UM-UC-3; conditions: Homo sapiens, UMUC3; UM-UC-3, Bladder; 96 hours continuous treatment
Experimental: as §1

MOLT-4 = experiment: Cytotoxicity assay (viable cell count, trypan blue), MOLT-4; conditions: Homo sapiens; MOLT-4, T-Cell Lymphoma; 96 hours continuous treatment
Experimental: as §1

Caov-3 = experiment: Cytotoxicity assay (viable cell count, trypan blue), Caov-3; conditions: Homo sapiens; Caov-3, Ovarian; 96 hours continuous treatment
Experimental: as §1

DU145 (prostate cancer) = experiment: Cytotoxicity assay, DU145 tumor cells; conditions: Homo sapiens, DU-145, 96 hours treatment
Experimental: (§2) The effect of the compounds of the invention on tumor cells was determined by the assay described by Latham et al., Oncogene 12:827-837 (1996). Tumor cells K562 (chronic myelogenous leukaemia) or DU145 (prostate cancer) were plated in 12-well dishes at a cell density of 2.5×10^4 cells well. The plated cells were treated 24 hours later with a compound of the invention dissolved in DMSO at multiple concentrations ranging from 0.001 to 10 μM. The plates were examined 96 hours later under an inverted microscope, Olympus CK-2 using a 10× objective, and compound activity was noted by physical observation. When necessary, the total number of viable cells was determined by trypsinizing the wells and counting the number of viable cells, as determined by trypan blue exclusion, using a hemacytometer.

HCT-15 = experiment: Cytotoxicity assay (viable cell count, trypan blue), HCT-15; conditions: Homo sapiens; HCT-15, Colo-Rectal; 96 hours continuous treatment
Experimental: as §1

2008 = experiment: Cytotoxicity assay (viable cell count, trypan blue), 2008; conditions: 2008, Ovarian; 96 hours continuous treatment
Experimental: as §1

DAUDI = experiment: Cytotoxicity assay (viable cell count, trypan blue), DAUDI; conditions: Homo sapiens, B-Cell Lymphoma, 96 hours continuous treatment
Experimental: as §1

Z1385 = experiment: Cytotoxicity assay (viable cell count, trypan blue), Z1385; conditions: Z1385, Mantle Cell Lymphoma; 96 hours continuous treatment
Experimental: as §1

WM1617 = experiment: Cytotoxicity assay (viable cell count, trypan blue), WM1617; conditions: WM1617, Melanoma; 96 hours continuous treatment
Experimental: as §1

MIA-PaCa-2 = experiment: Cytotoxicity assay (viable cell count, trypan blue), MIA-PaCa-2; conditions: Homo sapiens; MIA-PaCa-2, Pancreatic; 96 hours continuous treatment
Experimental: as §1

HT-29 = experiment: Cytotoxicity assay (viable cell count, trypan blue), HT-29; conditions: Homo sapiens; HT-29, Colo-Rectal; 96 hours continuous treatment
Experimental: as §1

H1299 = experiment: Cytotoxicity assay (viable cell count, trypan blue), H1299; conditions: Homo sapiens, NCI-H1299; H1299, Non-Small Cell Lung Carcinoma; 96 hours continuous treatment
Experimental: as §1

N417 = experiment: Cytotoxicity assay (viable cell count, trypan blue), N417; conditions: N417, Small Cell Lung Carcinoma; 96 hours continuous treatment
Experimental: as §1

A549 = experiment: Cytotoxicity assay (viable cell count, trypan blue), A549; conditions: Homo sapiens; A549, Non-Small Cell Lung Carcinoma; 96 hours continuous treatment
Experimental: as §1

T-24 = experiment: Cytotoxicity assay (viable cell count, trypan blue), T-24; conditions: Homo sapiens; T-24, Bladder; 96 hours continuous treatment
Experimental: as §1

tumor cell lines = experiment: Cytotoxicity assay, comparison across the cell lines listed in Table 18; conditions: across the cell lines of Table 18; against some tumor types as much as 10-fold or even 100-fold
Experimental: as §1

[1] = tested on: K562 (chronic myelogenous leukaemia); experiment: Cytotoxicity assay, K562 tumor cells; conditions: Homo sapiens, 96 hours treatment
Experimental: as §2

HCT-116 = experiment: Cytotoxicity assay (viable cell count, trypan blue), HCT-116; conditions: Homo sapiens; HCT-116, Colo-Rectal; 96 hours continuous treatment
Experimental: as §1

GRANTA-519 = experiment: Cytotoxicity assay (viable cell count, trypan blue), GRANTA-519; conditions: Homo sapiens; GRANTA-519, Mantle Cell Lymphoma; 96 hours continuous treatment
Experimental: as §1

RS4; 11 = experiment: Cytotoxicity assay (viable cell count, trypan blue), RS4; 11; conditions: Homo sapiens, 11, ALL-B-Cell Precursor, 96 hours continuous treatment
Experimental: as §1

K562 = experiment: Cytotoxicity assay (viable cell count, trypan blue), K562; conditions: Homo sapiens; K562, Chronic Myelogenous Leukemia; 96 hours continuous treatment
Experimental: as §1

5367 = experiment: Cytotoxicity assay (viable cell count, trypan blue), 5367; conditions: 5367, Bladder; 96 hours continuous treatment
Experimental: as §1

MDA-MB-231 = experiment: Cytotoxicity assay (viable cell count, trypan blue), MDA-MB-231; conditions: Homo sapiens; MDA-MB-231, Breast; 96 hours continuous treatment
Experimental: as §1

CEM = experiment: Cytotoxicity assay (viable cell count, trypan blue), CEM; conditions: Homo sapiens, CCRF-CEM, T-Cell Lymphoma, 96 hours continuous treatment
Experimental: as §1

How did the GI50 (DU145) turn out when `CCOC(=O)/C=C\Nc1cc(CS(=O)(=O)/C=C/c2c(OC)cc(OC)cc2OC)ccc1OC` [Ex. 1, (Z)-ethyl 3-((2-methoxy-5-(((E)-2,4,6-trimethoxystyrylsulfonyl)methyl)phenyl)amino) acrylate] was run?
Its GI50 is 10 nM.

And the GI50 (PC-3)?
The GI50 was 7.5 nM.

What about the GI50 (UM-UC-3) of the same compound?
Its GI50 is 3 nM.

And the GI50 (MOLT-4)?
Its GI50 is 7.5 nM.

What about the GI50 (Caov-3) of the same compound?
Its GI50 is 4 nM.

What about the IC50 (DU145 (prostate cancer)) of the same compound?
Its IC50 is 0.006 µM.

What about the GI50 (HCT-15) of the same compound?
The GI50 was 7.5 nM.

And the GI50 2008?
Its GI50 is 6 nM.

What about the GI50 (DAUDI) of the same compound?
Its GI50 is 7.5 nM.

What about the GI50 (Z1385) of the same compound?
The GI50 was 6 nM.

What about the GI50 (WM1617) of the same compound?
Its GI50 is 3 nM.

What about the GI50 (MIA-PaCa-2) of the same compound?
Its GI50 is 5 nM.

And the GI50 (HT-29)?
The GI50 was 15 nM.

And the GI50 (H1299)?
Its GI50 is 4 nM.

What about the GI50 (N417) of the same compound?
The GI50 was 8 nM.

What about the GI50 (A549) of the same compound?
Its GI50 is 7.5 nM.

What about the GI50 (T-24) of the same compound?
The GI50 was 4 nM.

What about the “fold more active than the Comparative Example 1 compound” value (tumor cell lines) of the same compound?
Its value is “at least 4 fold”.

What about the IC50 [1] of the same compound?
The IC50 was 0.002 µM.

What about the GI50 (HCT-116) of the same compound?
Its GI50 is 7.5 nM.

What about the GI50 (GRANTA-519) of the same compound?
The GI50 was 6 nM.

And the GI50 (RS4; 11)?
The GI50 was 7.5 nM.

And the GI50 (K562)?
The GI50 was 3 nM.

What about the GI50 5367 of the same compound?
The GI50 was 3 nM.

And the GI50 (MDA-MB-231)?
The GI50 was 7.5 nM.

What about the GI50 (CEM) of the same compound?
The GI50 was 7.5 nM.
